The results in this text go back to patent publication US10675284B2, “Treatment of B-cell malignancies by a combination JAK and PI3K inhibitors” (Incyte Corporation, priority 2014, dated 2020).

The target of assay [1] is human JAK2 (a.a. 828-1132) (Homo sapiens (Human), UniProt O60674). In words: In vitro JAK kinase assay (HTRF), JAK2. Format: biochemical. The following applies: IC50 ratio, 1 mM ATP.
In assay [2] the target is human JAK1 (a.a. 837-1142) (Homo sapiens, UniProt P23458). Briefly: In vitro JAK kinase assay (HTRF), JAK1. Format: biochemical.
Chain of human JAK1 (a.a. 837-1142) (P23458 whole entry, looked up): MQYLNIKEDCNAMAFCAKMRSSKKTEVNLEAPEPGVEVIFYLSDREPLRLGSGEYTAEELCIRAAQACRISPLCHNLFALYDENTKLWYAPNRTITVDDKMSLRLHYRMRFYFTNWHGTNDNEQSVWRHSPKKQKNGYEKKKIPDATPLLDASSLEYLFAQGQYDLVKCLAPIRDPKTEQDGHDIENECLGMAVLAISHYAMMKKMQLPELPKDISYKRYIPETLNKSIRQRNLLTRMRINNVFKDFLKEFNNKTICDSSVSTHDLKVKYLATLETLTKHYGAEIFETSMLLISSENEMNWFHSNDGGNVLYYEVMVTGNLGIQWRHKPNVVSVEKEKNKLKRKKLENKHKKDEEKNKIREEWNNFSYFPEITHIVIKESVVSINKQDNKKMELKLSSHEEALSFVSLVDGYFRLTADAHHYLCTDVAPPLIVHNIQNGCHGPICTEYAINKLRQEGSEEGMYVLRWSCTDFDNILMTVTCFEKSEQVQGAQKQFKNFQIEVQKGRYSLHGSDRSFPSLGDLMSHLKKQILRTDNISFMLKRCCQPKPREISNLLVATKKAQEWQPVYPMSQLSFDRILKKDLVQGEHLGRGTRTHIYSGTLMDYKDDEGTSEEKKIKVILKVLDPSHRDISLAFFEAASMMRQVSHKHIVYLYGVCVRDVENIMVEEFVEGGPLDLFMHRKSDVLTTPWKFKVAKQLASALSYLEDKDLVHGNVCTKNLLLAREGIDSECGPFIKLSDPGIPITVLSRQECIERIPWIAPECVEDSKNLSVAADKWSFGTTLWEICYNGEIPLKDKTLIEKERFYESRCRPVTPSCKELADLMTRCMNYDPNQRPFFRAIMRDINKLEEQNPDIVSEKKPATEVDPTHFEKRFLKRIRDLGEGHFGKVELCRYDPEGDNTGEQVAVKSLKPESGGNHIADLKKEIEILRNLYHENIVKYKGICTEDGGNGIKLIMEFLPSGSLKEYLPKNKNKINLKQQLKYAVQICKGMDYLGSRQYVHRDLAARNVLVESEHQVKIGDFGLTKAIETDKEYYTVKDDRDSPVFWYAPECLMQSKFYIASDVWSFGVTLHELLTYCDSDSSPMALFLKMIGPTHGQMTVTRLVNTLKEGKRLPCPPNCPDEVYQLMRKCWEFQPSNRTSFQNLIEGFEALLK
In another assay the test system is Pfeiffer cells. In words: Western blot analysis of Pfeiffer cells. Format: cell-based, human. Conditions: 24 hours. The procedure:
The following materials and methods were used in the Western blot analysis infra. Cells (5 million) were lysed in a 300 μl volume of lysis buffer. Soluble fractions were collected by centrifugation. 25 μl of cell lysate were loaded into Tris-Glycine polyacrylamide gels and subjected to electrophoresis. The proteins were transferred into nitrocellulose membrane and probed with antibodies from Cell Signaling Technology for the following proteins: phospho-Stat3 Y705, phospho-Akt 5473, pim1, pim2, pim3, c-myc, phospho-p70S6K, phosho-S6, phospho-Bad S112 and actin.
IL6 and IL10 promote cell survival through the expression of Pim2, which is dependent on JAK1 activity.
Extracts were analyzed by Western blot for pAKT and pSTAT3.
A general note: Immunoblotting shows a protein as a band on a membrane.

pIC50: −log10 of the molar value. Read-outs that look alike come from different tables or passages of the source.

Chain of human JAK2 (a.a. 828-1132) (O60674 828-1132): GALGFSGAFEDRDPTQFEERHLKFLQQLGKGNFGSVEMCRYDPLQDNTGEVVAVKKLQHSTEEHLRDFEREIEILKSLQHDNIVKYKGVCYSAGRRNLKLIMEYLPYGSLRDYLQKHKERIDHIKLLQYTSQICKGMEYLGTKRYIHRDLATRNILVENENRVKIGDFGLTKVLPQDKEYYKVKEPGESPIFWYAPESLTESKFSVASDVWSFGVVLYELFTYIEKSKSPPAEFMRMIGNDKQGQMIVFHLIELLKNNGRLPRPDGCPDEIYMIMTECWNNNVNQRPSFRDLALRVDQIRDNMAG

By pIC50 is commonly meant −log10 of the IC50, conventionally taken in molar units. Regarding `N#CCC(C1CCN(c2cccc(Cl)n2)C1)n1cc(-c2ncnc3[nH]ccc23)cn1` (single isomer, unassigned) [Compound 3, 3-[1-(6-chloropyridin-2-yl)pyrrolidin-3-yl]-3-[4-(7H-pyrrolo[2,3-d]pyrimidin-4-yl)-1H-pyrazol-1-yl]propanenitrile], in assay [1], the JAK2/JAK1 was more than 10. The molecule also had a pIC50 in assay [2] of more than 8.00.

Regarding `C[C@@H](O)c1nc2cnc3ccsc3c2n1[C@H]1CC[C@H](CC#N)OC1` [Compound 1, ((2R,5S)-5-{2-[(1R)-1-hydroxyethyl]-1H-imidazo[4,5-d]thieno[3,2-b]pyridin-1-yl}tetrahydro-2H-pyran-2-yl)acetonitrile], the JAK2/JAK1 in assay [1] is listed as more than 10. Moreover, the pIC50 in assay [2] (1 mM ATP, read-out: JAK1 IC50) is more than 7.00. For `N#CCC(C1CCN(c2nc3cccnc3o2)C1)n1cc(-c2ncnc3[nH]ccc23)cn1` (stereo not shown) [Compound 4, 3-(1-[1,3]oxazolo[5,4-b]pyridin-2-ylpyrrolidin-3-yl)-3-[4-(7H-pyrrolo[2,3-d]pyrimidin-4-yl)-1H-pyrazol-1-yl]propanenitrile], in that order: more than 10 and more than 8.00. Taken in the same sequence, the figures for `N#CCC(CN1CCN(C(=O)c2ccc(C#N)cc2F)CC1)n1cc(-c2ncnc3[nH]ccc23)cn1` (stereo not shown) [Compound 5, 4-[(4-{3-cyano-2-[4-(7H-pyrrolo[2,3-d]pyrimidin-4-yl)-1H-pyrazol-1-yl]propyl}piperazin-1-yl)carbonyl]-3-fluorobenzonitrile] were more than 10 and more than 8.00. Taken in the same sequence, the figures for `N#CCC(CN1CCN(C(=O)c2ccc(C#N)cc2F)CC1)n1ccc(-c2ncnc3[nH]ccc23)c1` (stereo not shown) [Compound 6, 4-[(4-{3-cyano-2-[3-(7H-pyrrolo[2,3-d]pyrimidin-4-yl)-1H-pyrrol-1-yl]propyl}piperazin-1-yl)carbonyl]-3-fluorobenzonitrile] were more than 10 and more than 8.00. For `N#CCC1(n2cc(-c3ncnc4[nH]ccc34)cn2)CN(C2CCN(C(=O)Nc3ccc(F)cc3C(F)(F)F)CC2)C1` [Compound 8, 4-{3-(cyanomethyl)-3-[4-(7H-pyrrolo[2,3-d]pyrimidin-4-yl)-1H-pyrazol-1-yl]azetidin-1-yl}-N-[4-fluoro-2-(trifluoromethyl)phenyl]piperidine-1-carboxamide], in assay [1], the JAK2/JAK1 is recorded as more than 10. Moreover, the negative logarithm of the IC50 (pIC50) in assay [2] (1 mM ATP, read-out: JAK1 IC50) is more than 8.00. Taken in the same sequence, the figures for `N#CCC1(n2cc(-c3ncnc4[nH]ccc34)cn2)CN(C2CCN(C(=O)c3ccnc(C(F)(F)F)n3)CC2)C1` [Compound 9, [3-[4-(7H-pyrrolo[2,3-d]pyrimidin-4-yl)-1H-pyrazol-1-yl]-1-(1-{[2-(trifluoromethyl)pyrimidin-4-yl]carbonyl}piperidin-4-yl)azetidin-3-yl]acetonitrile] were more than 10 and more than 8.00. For `N#CC[C@]1(n2cc(-c3ncnc4[nH]ccc34)cn2)C[C@H](N2CCN(C(=O)c3ccnc(C(F)(F)F)n3)CC2)C1` [Compound 10, [trans-1-[4-(7H-pyrrolo[2,3-d]pyrimidin-4-yl)-1H-pyrazol-1-yl]-3-(4-{[2-(trifluoromethyl)pyrimidin-4-yl]carbonyl}piperazin-1-yl)cyclobutyl]acetonitrile], in that order: more than 10 and more than 8.00.

For the molecule `N#CC[C@]1(n2cc(-c3ncnc4[nH]ccc34)cn2)C[C@H](N2CCC(Oc3cc(CN4CC(O)C4)cc(C(F)(F)F)n3)CC2)C1` [Compound 11, {trans-3-(4-{[4-[(3-hydroxyazetidin-1-yl)methyl]-6-(trifluoromethyl)pyridin-2-yl]oxy}piperidin-1-yl)-1-[4-(7H-pyrrolo[2,3-d]pyrimidin-4-yl)-1H-pyrazol-1-yl]cyclobutyl}acetonitrile], the pIC50 in assay [2] (1 mM ATP, read-out: JAK1 IC50) was more than 8.00.

Turning to `N#CC[C@]1(n2cc(-c3ncnc4[nH]ccc34)cn2)C[C@H](N2CCC(Oc3cc(CN4CCC[C@H]4CO)cc(C(F)(F)F)n3)CC2)C1` [Compound 12, {trans-3-(4-{[4-{[(2S)-2-(hydroxymethyl)pyrrolidin-1-yl]methyl}-6-(trifluoromethyl)pyridin-2-yl]oxy}piperidin-1-yl)-1-[4-(7H-pyrrolo[2,3-d]pyrimidin-4-yl)-1H-pyrazol-1-yl]cyclobutyl}acetonitrile], the JAK2/JAK1 in assay [1] was more than 10. Further, in assay [2] (1 mM ATP, read-out: JAK1 IC50), the pIC50 is more than 8.00. In the case of `N#CC[C@]1(n2cc(-c3ncnc4[nH]ccc34)cn2)C[C@H](N2CCC(Oc3cc(CN4CCC[C@@H]4CO)cc(C(F)(F)F)n3)CC2)C1` [Compound 13, {trans-3-(4-{[4-{[(2R)-2-(hydroxymethyl)pyrrolidin-1-yl]methyl}-6-(trifluoromethyl)pyridin-2-yl]oxy}piperidin-1-yl)-1-[4-(7H-pyrrolo[2,3-d]pyrimidin-4-yl)-1H-pyrazol-1-yl]cyclobutyl}acetonitrile], the JAK2/JAK1 in assay [1] is recorded as more than 10. In addition, the pIC50 in assay [2] (1 mM ATP, read-out: JAK1 IC50) is more than 8.00.

For `N#CCC1(n2cc(-c3ncnc4[nH]ccc34)cn2)CN([C@H]2CC[C@@H](Oc3cc(CCO)nc(C(F)(F)F)n3)CC2)C1` [Compound 18, {1-(cis-4-{[6-(2-hydroxyethyl)-2-(trifluoromethyl)pyrimidin-4-yl]oxy}cyclohexyl)-3-[4-(7H-pyrrolo[2,3-d]pyrimidin-4-yl)-1H-pyrazol-1-yl]azetidin-3-yl}acetonitrile], the JAK2/JAK1 in assay [1] is reported as more than 10. Moreover, the pIC50 in assay [2] (1 mM ATP, read-out: JAK1 IC50) was more than 8.00.

For `CCNCc1cc(O[C@H]2CC[C@@H](N3CC(CC#N)(n4cc(-c5ncnc6[nH]ccc56)cn4)C3)CC2)nc(C(F)(F)F)c1` [Compound 19, {1-(cis-4-{[4-[(ethylamino)methyl]-6-(trifluoromethyl)pyridin-2-yl]oxy}cyclohexyl)-3-[4-(7H-pyrrolo[2,3-d]pyrimidin-4-yl)-1H-pyrazol-1-yl]azetidin-3-yl}acetonitrile], the JAK2/JAK1 in assay [1] is given as more than 10. The negative logarithm of the IC50 (pIC50) in assay [2] (1 mM ATP, read-out: JAK1 IC50) was more than 8.00. As to `CC(C)(O)c1cc(O[C@H]2CC[C@@H](N3CC(CC#N)(n4cc(-c5ncnc6[nH]ccc56)cn4)C3)CC2)nc(C(F)(F)F)c1` [Compound 20, {1-(cis-4-{[4-(1-hydroxy-1-methylethyl)-6-(trifluoromethyl)pyridin-2-yl]oxy}cyclohexyl)-3-[4-(7H-pyrrolo[2,3-d]pyrimidin-4-yl)-1H-pyrazol-1-yl]azetidin-3-yl}acetonitrile], in assay [1], the JAK2/JAK1 is more than 10. Further, the pIC50 in assay [2] (1 mM ATP, read-out: JAK1 IC50) was more than 8.00. Regarding `N#CCC1(n2cc(-c3ncnc4[nH]ccc34)cn2)CN([C@H]2CC[C@@H](Oc3cc(CN4CC[C@@H](O)C4)cc(C(F)(F)F)n3)CC2)C1` [Compound 21, {1-(cis-4-{[4-{[(3R)-3-hydroxypyrrolidin-1-yl]methyl}-6-(trifluoromethyl)pyridin-2-yl]oxy}cyclohexyl)-3-[4-(7H-pyrrolo[2,3-d]pyrimidin-4-yl)-1H-pyrazol-1-yl]azetidin-3-yl}acetonitrile], in assay [1], the JAK2/JAK1 is listed as more than 10. Besides, the pIC50 in assay [2] (1 mM ATP, read-out: JAK1 IC50) was more than 8.00. Regarding `N#CCC1(n2cc(-c3ncnc4[nH]ccc34)cn2)CN([C@H]2CC[C@@H](Oc3cc(CN4CC[C@H](O)C4)cc(C(F)(F)F)n3)CC2)C1` [Compound 22, {1-(cis-4-{[4-{[(3S)-3-hydroxypyrrolidin-1-yl]methyl}-6-(trifluoromethyl)pyridin-2-yl]oxy}cyclohexyl)-3-[4-(7H-pyrrolo[2,3-d]pyrimidin-4-yl)-1H-pyrazol-1-yl]azetidin-3-yl}acetonitrile], in assay [1], the JAK2/JAK1 is reported as more than 10. Moreover, the negative-log IC50 (pIC50) in assay [2] (1 mM ATP, read-out: JAK1 IC50) was more than 8.00.

For `C[C@@H](CO)NCc1cc(OC2CCN([C@H]3C[C@](CC#N)(n4cc(-c5ncnc6[nH]ccc56)cn4)C3)CC2)nc(C(F)(F)F)c1` [Compound 23, {trans-3-(4-{[4-({[(1S)-2-hydroxy-1-methylethyl]amino}methyl)-6-(trifluoromethyl)pyridin-2-yl]oxy}piperidin-1-yl)-1-[4-(7H-pyrrolo[2,3-d]pyrimidin-4-yl)-1H-pyrazol-1-yl]cyclobutyl}acetonitrile], in assay [1], the JAK2/JAK1 is more than 10. The pIC50 in assay [2] (1 mM ATP, read-out: JAK1 IC50) was more than 8.00.

With `C[C@@H](O)CNCc1cc(OC2CCN([C@H]3C[C@](CC#N)(n4cc(-c5ncnc6[nH]ccc56)cn4)C3)CC2)nc(C(F)(F)F)c1` [Compound 24, {trans-3-(4-{[4-({[(2R)-2-hydroxypropyl]amino}methyl)-6-(trifluoromethyl)pyridin-2-yl]oxy}piperidin-1-yl)-1-[4-(7H-pyrrolo[2,3-d]pyrimidin-4-yl)-1H-pyrazol-1-yl]cyclobutyl}acetonitrile], in assay [1], the JAK2/JAK1 was more than 10. Also, the negative logarithm of the IC50 (pIC50) in assay [2] (1 mM ATP, read-out: JAK1 IC50) was more than 8.00. `C[C@H](O)CNCc1cc(OC2CCN([C@H]3C[C@](CC#N)(n4cc(-c5ncnc6[nH]ccc56)cn4)C3)CC2)nc(C(F)(F)F)c1` [Compound 25, {trans-3-(4-{[4-({[(2S)-2-hydroxypropyl]amino}methyl)-6-(trifluoromethyl)pyridin-2-yl]oxy}piperidin-1-yl)-1-[4-(7H-pyrrolo[2,3-d]pyrimidin-4-yl)-1H-pyrazol-1-yl]cyclobutyl}acetonitrile]: in assay [1], the JAK2/JAK1 is on record as more than 10. The negative-log IC50 (pIC50) in assay [2] (1 mM ATP, read-out: JAK1 IC50) is more than 8.00. Taken in the same sequence, the figures for `N#CC[C@]1(n2cc(-c3ncnc4[nH]ccc34)cn2)C[C@H](N2CCC(Oc3cc(CCO)cc(C(F)(F)F)n3)CC2)C1` [Compound 26, {trans-3-(4-{[4-(2-hydroxyethyl)-6-(trifluoromethyl)pyridin-2-yl]oxy}piperidin-1-yl)-1-[4-(7H-pyrrolo[2,3-d]pyrimidin-4-yl)-1H-pyrazol-1-yl]cyclobutyl}acetonitrile] were more than 10 and more than 8.00. `N#CC[C@H](C1CCCC1)n1cc(-c2ncnc3[nH]ccc23)cn1` [ruxolitinib, (3R)-3-cyclopentyl-3-[4-(7H-pyrrolo[2,3-d]pyrimidin-4-yl)-1H-pyrazol-1-yl]propanenitrile, reference compound]: the “IL10-induced expression of Pim2” value with Pfeiffer cells is “blocked”.
